{"source": "paper PMC5218480", "about": "(PLoS ONE, 2017)", "system": "MV-4-11 cells", "assay": "Gene expression microarray analysis (Affymetrix PrimeView) and GSEA", "format": "cell-based, human", "set-up": "RFU PODN (11730768_x_at) / Fold change /veh PODN (11730768_x_at) / RFU LINC00158 (11744669_a_at) / Fold change /veh LINC00158 (11744669_a_at) / RFU DUSP10 (11751237_a_at) / Fold change /veh DUSP10 (11751237_a_at) / RFU ID3 (11757404_x_at) / Fold change /veh ID3 (11757404_x_at) / RFU PLEKHG5 (11737974_s_at) / Fold change /veh PLEKHG5 (11737974_s_at) / RFU LRRC4B (11730491_at) / Fold change /veh LRRC4B (11730491_at) / RFU GIMAP4 (11747438_a_at) / Fold change /veh GIMAP4 (11747438_a_at) / RFU KRT8 (11758183_x_at) / Fold change /veh KRT8 (11758183_x_at) / RFU CNN1 (11734310_a_at) / Fold change /veh CNN1 (11734310_a_at) / RFU VPS37D (11726825_at) / Fold change /veh VPS37D (11726825_at) / RFU C10orf10 (11716522_x_at) / Fold change /veh C10orf10 (11716522_x_at) / RFU KIR2DL2 /// KIR2DL4 /// KIR2DL5A /// KIR2DL5B /// KIR2DS1 /// KIR2DS2 /// KIR2DS3 /// KIR2DS4 /// KIR3DL3 /// KIR3DL3 /// KIR3DS1 (11738374_at) / Fold change /veh KIR2DL2 /// KIR2DL4 /// KIR2DL5A /// KIR2DL5B /// KIR2DS1 /// KIR2DS2 /// KIR2DS3 /// KIR2DS4 /// KIR3DL3 /// KIR3DL3 /// KIR3DS1 (11738374_at) / RFU C1QL1 (11718748_at) / Fold change /veh C1QL1 (11718748_at) / RFU TMPRSS4 (11747572_a_at) / Fold change /veh TMPRSS4 (11747572_a_at) / RFU HAMP (11756126_x_at) / Fold change /veh HAMP (11756126_x_at) / RFU RNFT2 (11725882_a_at) / Fold change /veh RNFT2 (11725882_a_at) / RFU NR4A2 (11747474_a_at) / Fold change /veh NR4A2 (11747474_a_at) / RFU ABCC12 (11746883_a_at) / Fold change /veh ABCC12 (11746883_a_at) / RFU TMEM136 (11760407_x_at) / Fold change /veh TMEM136 (11760407_x_at) / RFU CLDN22 /// WWC2 (11732394_at) / Fold change /veh CLDN22 /// WWC2 (11732394_at) / RFU HLA-DPB1 (11760878_x_at) / Fold change /veh HLA-DPB1 (11760878_x_at) / RFU SPINT1 (11716480_a_at) / Fold change /veh SPINT1 (11716480_a_at) / RFU GAP43 (11754022_s_at) / Fold change /veh GAP43 (11754022_s_at) / RFU A4GNT (11735810_at) / Fold change /veh A4GNT (11735810_at) / RFU PRB3 (11715151_x_at) / Fold change /veh PRB3 (11715151_x_at) / RFU TUBB4B (11761932_at) / Fold change /veh TUBB4B (11761932_at) / RFU CAPN14 (11732068_a_at) / Fold change /veh CAPN14 (11732068_a_at) / RFU TMCC2 (11721928_a_at) / Fold change /veh TMCC2 (11721928_a_at) / RFU IRGQ (11745062_a_at) / Fold change /veh IRGQ (11745062_a_at) / RFU FAM174B (11720279_a_at) / Fold change /veh FAM174B (11720279_a_at) / RFU TMPRSS4 (11748680_a_at) / Fold change /veh TMPRSS4 (11748680_a_at) / RFU FAM212B (11763350_a_at) / Fold change /veh FAM212B (11763350_a_at) / RFU PLEKHG5 (11743358_a_at) / Fold change /veh PLEKHG5 (11743358_a_at) / RFU ZSCAN30 (11745921_a_at) / Fold change /veh ZSCAN30 (11745921_a_at) / RFU CMKLR1 (11741424_a_at) / Fold change /veh CMKLR1 (11741424_a_at) / RFU LOC101060620 /// MAPK8IP1 (11723275_at) / Fold change /veh LOC101060620 /// MAPK8IP1 (11723275_at) / RFU SPTSSB (11747773_x_at) / Fold change /veh SPTSSB (11747773_x_at) / RFU PRSS12 (11739890_at) / Fold change /veh PRSS12 (11739890_at) / RFU BIN1 (11741810_x_at) / Fold change /veh BIN1 (11741810_x_at) / RFU WNT11 (11732464_a_at) / Fold change /veh WNT11 (11732464_a_at) / RFU C10orf10 (11716521_a_at) / Fold change /veh C10orf10 (11716521_a_at) / RFU C5orf56 (11738089_at) / Fold change /veh C5orf56 (11738089_at) / RFU CYB561 (11721691_x_at) / Fold change /veh CYB561 (11721691_x_at) / RFU ANKRD19P (11752326_a_at) / Fold change /veh ANKRD19P (11752326_a_at) / RFU OR2T12 /// OR2T33 /// OR2T8 (11738714_s_at) / Fold change /veh OR2T12 /// OR2T33 /// OR2T8 (11738714_s_at) / RFU VCAN (11748164_a_at) / Fold change /veh VCAN (11748164_a_at) / RFU JSRP1 (11732532_at) / Fold change /veh JSRP1 (11732532_at) / RFU KRTAP10-11 (11738290_x_at) / Fold change /veh KRTAP10-11 (11738290_x_at) / RFU MYO3A (11730013_a_at) / Fold change /veh MYO3A (11730013_a_at) / RFU EBF3 (11725865_a_at) / Fold change /veh EBF3 (11725865_a_at) / RFU CAMK2N1 (11719241_x_at) / Fold change /veh CAMK2N1 (11719241_x_at) / RFU C5orf56 (11738088_a_at) / Fold change /veh C5orf56 (11738088_a_at) / RFU OLFML3 (11715873_a_at) / Fold change /veh OLFML3 (11715873_a_at) / RFU LOC100653217 /// NTM (11731650_a_at) / Fold change /veh LOC100653217 /// NTM (11731650_a_at) / RFU MAPK11 (11762145_a_at) / Fold change /veh MAPK11 (11762145_a_at) / RFU FIZ1 (11724087_x_at) / Fold change /veh FIZ1 (11724087_x_at) / RFU OASL (11726364_x_at) / Fold change /veh OASL (11726364_x_at) / RFU SOX15 (11748057_x_at) / Fold change /veh SOX15 (11748057_x_at) / RFU CD79A (11719716_a_at) / Fold change /veh CD79A (11719716_a_at) / RFU HIST1H1D (11736915_at) / Fold change /veh HIST1H1D (11736915_at) / RFU CASKIN2 (11723855_a_at) / Fold change /veh CASKIN2 (11723855_a_at) / RFU LOC730098 (11760151_x_at) / Fold change /veh LOC730098 (11760151_x_at) / RFU OR4N2 (11742367_at) / Fold change /veh OR4N2 (11742367_at) / RFU PRRT2 (11749266_a_at) / Fold change /veh PRRT2 (11749266_a_at) / RFU SNX32 (11753110_a_at) / Fold change /veh SNX32 (11753110_a_at) / RFU CDHR5 (11726645_a_at) / Fold change /veh CDHR5 (11726645_a_at) / RFU RCAN1 (11760418_a_at) / Fold change /veh RCAN1 (11760418_a_at) / RFU FAM167A (11723789_a_at) / Fold change /veh FAM167A (11723789_a_at) / RFU FAM26E (11764081_at) / Fold change /veh FAM26E (11764081_at) / RFU ISYNA1 (11749810_s_at) / Fold change /veh ISYNA1 (11749810_s_at) / RFU ACY1 (11761880_at) / Fold change /veh ACY1 (11761880_at) / RFU 11764098_at / Fold change /veh 11764098_at / RFU SAMD14 (11745864_x_at) / Fold change /veh SAMD14 (11745864_x_at) / RFU NPB (11741838_a_at) / Fold change /veh NPB (11741838_a_at) / RFU TMPRSS6 (11731388_a_at) / Fold change /veh TMPRSS6 (11731388_a_at) / RFU KRTAP10-2 (11738614_at) / Fold change /veh KRTAP10-2 (11738614_at) / RFU ARHGAP8 /// PRR5-ARHGAP8 (11727945_x_at) / Fold change /veh ARHGAP8 /// PRR5-ARHGAP8 (11727945_x_at) / RFU KRTAP5-7 /// NADSYN1 (11734609_at) / Fold change /veh KRTAP5-7 /// NADSYN1 (11734609_at) / RFU RASL12 (11751679_a_at) / Fold change /veh RASL12 (11751679_a_at) / RFU CDKN2B (11736163_a_at) / Fold change /veh CDKN2B (11736163_a_at) / RFU PRF1 (11729649_at) / Fold change /veh PRF1 (11729649_at) / RFU, ZNF638 /// ZNF638-IT1 / Fold change vs veh, ZNF638 /// ZNF638-IT1 / RFU, PANK3 / Fold change vs veh, PANK3 / RFU, SH3YL1 / Fold change vs veh, SH3YL1 / RFU, ZEB2 / Fold change vs veh, ZEB2 / RFU, NRIP1 / Fold change vs veh, NRIP1 / RFU, PTTG1IP / Fold change vs veh, PTTG1IP / RFU, CAPN2 / Fold change vs veh, CAPN2 / RFU, MED14 / Fold change vs veh, MED14 / RFU, SNORA58 / Fold change vs veh, SNORA58 / RFU, C1orf63 / Fold change vs veh, C1orf63 / RFU, LRRFIP1 / Fold change vs veh, LRRFIP1 / RFU, NDUFAF7 / Fold change vs veh, NDUFAF7 / RFU, SLC12A2 / Fold change vs veh, SLC12A2 / RFU, IBTK / Fold change vs veh, IBTK / RFU, ESF1 / Fold change vs veh, ESF1 / Fold change vs veh, TMEM50B / RFU, TAOK1 / Fold change vs veh, TAOK1 / RFU, ACBD3 / Fold change vs veh, ACBD3 / RFU, TMA16 / Fold change vs veh, TMA16 / RFU, RWDD3 / Fold change vs veh, RWDD3 / RFU, BCAT1 / Fold change vs veh, BCAT1 / RFU, EDEM3 / Fold change vs veh, EDEM3 / RFU, TMEM33 / Fold change vs veh, TMEM33 / RFU, WDR75 / Fold change vs veh, WDR75 / RFU, AHCTF1 / Fold change vs veh, AHCTF1 / RFU, TFRC / Fold change vs veh, TFRC / RFU, ZDHHC17 / Fold change vs veh, ZDHHC17 / RFU, NOM1 / Fold change vs veh, NOM1 / RFU, ARL8B / Fold change vs veh, ARL8B / RFU, ZBTB11 / Fold change vs veh, ZBTB11 / RFU, TAMM41 / Fold change vs veh, TAMM41 / RFU, KIAA1704 /// LOC100996395 / Fold change vs veh, KIAA1704 /// LOC100996395 / RFU, ING1 / Fold change vs veh, ING1 / RFU, TRMT61B / Fold change vs veh, TRMT61B / RFU, FUBP3 / Fold change vs veh, FUBP3 / RFU, TP53 / Fold change vs veh, TP53 / RFU, TNKS2 / Fold change vs veh, TNKS2 / RFU, ZFP14 / Fold change vs veh, ZFP14 / RFU, ACTR2 / Fold change vs veh, ACTR2 / RFU, PPP3R1 / Fold change vs veh, PPP3R1 / RFU, PIK3R1 / Fold change vs veh, PIK3R1 / RFU, HNRNPA1 / Fold change vs veh, HNRNPA1 / RFU, RNF170 / Fold change vs veh, RNF170 / RFU, ZNF28 / Fold change vs veh, ZNF28 / RFU, RNGTT / Fold change vs veh, RNGTT / RFU, OGT / Fold change vs veh, OGT / RFU, BRD1 / Fold change vs veh, BRD1 / RFU, MARS / Fold change vs veh, MARS / RFU, ZNF655 / Fold change vs veh, ZNF655 / RFU, FAHD1 / Fold change vs veh, FAHD1 / RFU, BDP1 / Fold change vs veh, BDP1 / RFU, LRRCC1 / Fold change vs veh, LRRCC1 / RFU, ARID1A / Fold change vs veh, ARID1A / RFU, ZNF146 / Fold change vs veh, ZNF146 / RFU, ZNF330 / Fold change vs veh, ZNF330 / RFU, GPN3 / Fold change vs veh, GPN3 / RFU, C9orf123 / Fold change vs veh, C9orf123 / RFU, N4BP2L2 / Fold change vs veh, N4BP2L2 / RFU, ARFIP1 / Fold change vs veh, ARFIP1 / RFU, FAM179B / Fold change vs veh, FAM179B / RFU, BCL10 / Fold change vs veh, BCL10 / RFU, UHRF1BP1L / Fold change vs veh, UHRF1BP1L / RFU, BET1 / Fold change vs veh, BET1 / RFU, CNOT2 / Fold change vs veh, CNOT2 / RFU, ZNF268 / Fold change vs veh, ZNF268 / Fold change vs veh, ZNF507 / RFU, DGCR2 / Fold change vs veh, DGCR2 / RFU, WDSUB1 / Fold change vs veh, WDSUB1 / Fold change vs veh, HSP90B1 /// MIR3652 / RFU, ADSS / Fold change vs veh, ADSS / RFU, GK / Fold change vs veh, GK / RFU, ZNF148 / Fold change vs veh, ZNF148 / RFU, TAF9 / Fold change vs veh, TAF9 / RFU, SLC1A5 / Fold change vs veh, SLC1A5 / RFU, SLMO2 / Fold change vs veh, SLMO2 / RFU, ABCC4 / Fold change vs veh, ABCC4 / RFU, LOC101060439 /// RAP1B / Fold change vs veh, LOC101060439 /// RAP1B / RFU, RFX7 / Fold change vs veh, RFX7 / RFU, GTPBP10 / Fold change vs veh, GTPBP10 / RFU, CNEP1R1 / Fold change vs veh, CNEP1R1 / RFU, BIVM-ERCC5 /// ERCC5 / Fold change vs veh, BIVM-ERCC5 /// ERCC5 / RFU, ILF3 / Fold change vs veh, ILF3 / RFU 11762660_at / Fold change /veh 11762660_at / RFU VCAN (11757783_s_at) / Fold change /veh VCAN (11757783_s_at) / RFU DDX43 (11728927_at) / Fold change /veh DDX43 (11728927_at) / RFU KRT8 (11758188_x_at) / Fold change /veh KRT8 (11758188_x_at) / RFU NKD1 (11759106_at) / Fold change /veh NKD1 (11759106_at) / RFU SRD5A1 (11742802_a_at) / Fold change /veh SRD5A1 (11742802_a_at) / RFU TPSAB1 /// TPSB2 (11721975_s_at) / Fold change /veh TPSAB1 /// TPSB2 (11721975_s_at) / RFU GSTM3 (11746129_a_at) / Fold change /veh GSTM3 (11746129_a_at) / RFU IL23R (11737362_x_at) / Fold change /veh IL23R (11737362_x_at) / RFU TMEM51 (11727254_a_at) / Fold change /veh TMEM51 (11727254_a_at) / RFU PIWIL2 (11732686_x_at) / Fold change /veh PIWIL2 (11732686_x_at) / RFU ORM1 (11744905_x_at) / Fold change /veh ORM1 (11744905_x_at) / RFU CCDC152 (11743942_at) / Fold change /veh CCDC152 (11743942_at) / RFU ECM1 (11717891_a_at) / Fold change /veh ECM1 (11717891_a_at) / RFU IL23R (11748794_a_at) / Fold change /veh IL23R (11748794_a_at) / RFU TNFAIP8L3 (11732012_x_at) / Fold change /veh TNFAIP8L3 (11732012_x_at) / RFU MBOAT4 (11741988_at) / Fold change /veh MBOAT4 (11741988_at) / RFU 11764193_at / Fold change /veh 11764193_at / RFU TMEM53 (11763286_at) / Fold change /veh TMEM53 (11763286_at) / RFU MAGEB2 (11727129_at) / Fold change /veh MAGEB2 (11727129_at) / RFU TMEM200A (11744735_a_at) / Fold change /veh TMEM200A (11744735_a_at) / RFU CCDC152 (11751479_a_at) / Fold change /veh CCDC152 (11751479_a_at) / RFU FAM211A (11726209_a_at) / Fold change /veh FAM211A (11726209_a_at) / RFU RGS16 (11746705_a_at) / Fold change /veh RGS16 (11746705_a_at) / RFU VCAN (11755009_s_at) / Fold change /veh VCAN (11755009_s_at) / RFU RHOB (11743442_s_at) / Fold change /veh RHOB (11743442_s_at) / RFU RGS16 (11720943_a_at) / Fold change /veh RGS16 (11720943_a_at) / RFU RGS16 (11720944_at) / Fold change /veh RGS16 (11720944_at) / RFU, VPS4B / Fold change vs veh, VPS4B / RFU, CREB1 / Fold change vs veh, CREB1 / RFU, DNAJC13 / Fold change vs veh, DNAJC13 / RFU, GNAQ / Fold change vs veh, GNAQ / RFU, CDK5R1 / Fold change vs veh, CDK5R1 / RFU, ZRANB3 / Fold change vs veh, ZRANB3 / RFU, CUL4A / Fold change vs veh, CUL4A / RFU, CCNY / Fold change vs veh, CCNY / RFU, UFL1 / Fold change vs veh, UFL1 / RFU, COG3 / Fold change vs veh, COG3 / RFU, DIAPH2 / Fold change vs veh, DIAPH2 / RFU, SKA2 / Fold change vs veh, SKA2 / RFU, AFF3 / Fold change vs veh, AFF3 / RFU, LMF1 / Fold change vs veh, LMF1 / RFU, IPO11 / Fold change vs veh, IPO11 / RFU, DFFB / Fold change vs veh, DFFB / RFU, FOXP1 / Fold change vs veh, FOXP1 / RFU, CARD8 / Fold change vs veh, CARD8 / RFU, STRN3 / Fold change vs veh, STRN3 / RFU, ADK / Fold change vs veh, ADK / RFU, RASSF2 / Fold change vs veh, RASSF2 / RFU, WIPF1 / Fold change vs veh, WIPF1 / RFU, LARP1B / Fold change vs veh, LARP1B / RFU, RASA1 / Fold change vs veh, RASA1 / RFU, RB1 / Fold change vs veh, RB1 / RFU, PPFIA1 / Fold change vs veh, PPFIA1 / RFU, MAT2A / Fold change vs veh, MAT2A / RFU, CCT5 / Fold change vs veh, CCT5 / RFU, WDR92 / Fold change vs veh, WDR92 / RFU, CUX1 / Fold change vs veh, CUX1 / RFU, TTC7A / Fold change vs veh, TTC7A / RFU, TMEM135 / Fold change vs veh, TMEM135 / RFU, DEPTOR / Fold change vs veh, DEPTOR / RFU, CPM / Fold change vs veh, CPM / RFU, DNAJB6 / Fold change vs veh, DNAJB6 / RFU, CACNA2D3 / Fold change vs veh, CACNA2D3 / RFU, DTX4 / Fold change vs veh, DTX4 / RFU, TFCP2 / Fold change vs veh, TFCP2 / RFU, GMCL1 /// GMCL1P1 / Fold change vs veh, GMCL1 /// GMCL1P1 / RFU, AEBP2 / Fold change vs veh, AEBP2 / RFU, SNHG1 /// SNORD22 /// SNORD25 /// SNORD26 /// SNORD27 /// SNORD28 /// SNORD29 /// SNORD31 / Fold change vs veh, SNHG1 /// SNORD22 /// SNORD25 /// SNORD26 /// SNORD27 /// SNORD28 /// SNORD29 /// SNORD31 / Fold change (Aza/veh), C12orf56 (ProbeSet 11735607_a_at) / Fold change (ACY-1035/veh), C12orf56 (ProbeSet 11735607_a_at) / Fold change (Aza/veh), FGFR1OP (ProbeSet 11751329_s_at) / Fold change (ACY-1035/veh), FGFR1OP (ProbeSet 11751329_s_at) / Fold change (Aza/veh), VPS36 (ProbeSet 11739960_a_at) / Fold change (ACY-1035/veh), VPS36 (ProbeSet 11739960_a_at) / RFU SYPL1 (11715823_x_at) / Fold change /veh SYPL1 (11715823_x_at) / RFU IGFBP7 (11715501_s_at) / Fold change /veh IGFBP7 (11715501_s_at) / RFU REEP3 (11722064_at) / Fold change /veh REEP3 (11722064_at) / RFU IGLL1 (11728026_x_at) / Fold change /veh IGLL1 (11728026_x_at): dose or concentration left out as unconfirmed", "conditions": "MV-4-11 cells, 48 hours", "data": [{"smiles": "Nc1ncn([C@@H]2O[C@H](CO)[C@@H](O)[C@H]2O)c(=O)n1", "note": "[azacitidine]", "values": [{"measurement": "Fold change /veh TPSAB1 /// TPSB2 (11721975_s_at)", "value": 1.21}]}]}
